Test results taken from patent US20020111274A1, “1-alkyl-3-[1-(substituted phenyl) benzotriazol-6-yl] uracils” (BASF Aktiengesellschaft, priority 2000, published 2002).

Tests used:
Set-up in all cases: scale not given here
[1] = tested on: SETVI Foxtail, Green; test: Postemergence herbicidal evaluation, SETVI; format: in vivo, Setaria viridis, (L.) Beau; settings: postemergence spray, rated about two-three weeks after treatment
In short: (§1)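 Visual injury rating ~2–3 wk post-spray; replicate tests averaged. Two-week-old seedlings; foliar spray at 40 psi; 0.006–0.400 kg ai/ha in 80/20 acetone/water + 1.0% methylated seed oil.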

[2] = tested on: AMBEL Ragweed, Common; test: Preemergence herbicidal evaluation, AMBEL; format: in vivo, Ambrosia artemisifolia, L.; settings: preemergence
In short: (§2)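 Seeds mixed with potting soil in cups, then sprayed preemergence with aqueous acetone test solution at about 0.013 to 0.800 kg per hectare equivalent. Cups kept under standard greenhouse care; plants rated on a visual scale four to five weeks after treatment.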

[3] = tested on: ORYSAT Rice, Tebonnet; test: Postemergence herbicidal evaluation, ORYSAT; format: in vivo, Oryza sativa, (L.); settings: postemergence spray, rated about two-three weeks after treatment
In short: as §1

[4] = tested on: IPOHE Morningglory, Ivyleaf; test: Postemergence herbicidal evaluation, IPOHE; format: in vivo, Ipomoea hederacea, (L.) Jacq.; settings: postemergence spray, rated about two-three weeks after treatment
In short: as §1

[5] = tested on: TRZAWR Wheat, Winter, cv Riband; test: Preemergence herbicidal evaluation, TRZAWR; format: in vivo, Triticum aestivum; settings: preemergence
In short: as §2

[6] = tested on: CASOB Sicklepod; test: Postemergence herbicidal evaluation, CASOB; format: in vivo, Cassia obtusifolia, L.; settings: postemergence spray, rated about two-three weeks after treatment
In short: as §1

[7] = tested on: SETVI Foxtail, Green; test: Preemergence herbicidal evaluation, SETVI; format: in vivo, Setaria viridis, (L.) Beau; settings: preemergence
In short: as §2

[8] = tested on: ZEAMX Corn, Field; test: Preemergence herbicidal evaluation, ZEAMX; format: in vivo, Zea mays, L. (Sammel-Bezeichnung); settings: preemergence
In short: as §2

[9] = tested on: GLXMAW Soybean, Williams; test: Preemergence herbicidal evaluation, GLXMAW; format: in vivo, Glycine max, (L.) Merr. cv Williams; settings: preemergence
In short: as §2

[10] = tested on: GALAP Galium; test: Postemergence herbicidal evaluation, GALAP; format: in vivo, Galium aparine; settings: postemergence spray, rated about two-three weeks after treatment
In short: as §1

[11] = tested on: GALAP Galium; test: Preemergence herbicidal evaluation, GALAP; format: in vivo, Galium aparine; settings: preemergence
In short: as §2

[12] = tested on: ABUTH Velvetleaf; test: Postemergence herbicidal evaluation, ABUTH; format: in vivo, Abutilon theophrasti, Medic.; settings: postemergence spray, rated about two-three weeks after treatment
In short: as §1

[13] = tested on: ORYSAT Rice, Tebonnet; test: Preemergence herbicidal evaluation, ORYSAT; format: in vivo, Oryza sativa, (L.); settings: preemergence
In short: as §2

[14] = tested on: ECHOG Barnyardgrass; test: Postemergence herbicidal evaluation, ECHOG; format: in vivo, Echinochloa crus-galli, (L.) Beau; settings: postemergence spray, rated about two-three weeks after treatment
In short: as §1

[15] = tested on: CASOB Sicklepod; test: Preemergence herbicidal evaluation, CASOB; format: in vivo, Cassia obtusifolia, L.; settings: preemergence
In short: as §2

[16] = tested on: TRZAWR Wheat, Winter, cv Riband; test: Postemergence herbicidal evaluation, TRZAWR; format: in vivo, Triticum aestivum; settings: postemergence spray, rated about two-three weeks after treatment
In short: as §1

[17] = tested on: IPOHE Morningglory, Ivyleaf; test: Preemergence herbicidal evaluation, IPOHE; format: in vivo, Ipomoea hederacea, (L.) Jacq.; settings: preemergence
In short: as §2

[18] = tested on: ZEAMX Corn, Field; test: Postemergence herbicidal evaluation, ZEAMX; format: in vivo, Zea mays, L. (Sammel-Bezeichnung); settings: postemergence spray, rated about two-three weeks after treatment
In short: as §1

[19] = tested on: CHEAL Lambsquarters, Common; test: Preemergence herbicidal evaluation, CHEAL; format: in vivo, Chenopodium album, L.; settings: preemergence
In short: as §2

[20] = tested on: ECHOG Barnyardgrass; test: Preemergence herbicidal evaluation, ECHOG; format: in vivo, Echinochloa crus-galli, (L.) Beau; settings: preemergence
In short: as §2

[21] = tested on: ABUTH Velvetleaf; test: Preemergence herbicidal evaluation, ABUTH; format: in vivo, Abutilon theophrasti, Medic.; settings: preemergence
In short: as §2

[22] = tested on: CHEAL Lambsquarters, Common; test: Postemergence herbicidal evaluation, CHEAL; format: in vivo, Chenopodium album, L.; settings: postemergence spray, rated about two-three weeks after treatment
In short: as §1

[23] = tested on: GLXMAW Soybean, Williams; test: Postemergence herbicidal evaluation, GLXMAW; format: in vivo, Glycine max, (L.) Merr. cv Williams; settings: postemergence spray, rated about two-three weeks after treatment
In short: as §1

[24] = tested on: AMBEL Ragweed, Common; test: Postemergence herbicidal evaluation, AMBEL; format: in vivo, Ambrosia artemisifolia, L.; settings: postemergence spray, rated about two-three weeks after treatment
In short: as §1

## COC(=O)COc1ccc(C)c(-n2nnc3cc(F)c(-n4c(=O)cc(C(F)(F)F)n(C)c4=O)cc32)c1 [Example 38]
[1]; 0.008 kg/ha
  Postemergence herbicidal rating SETVI: 0.0
[1]; 0.016 kg/ha
  Postemergence herbicidal rating SETVI: 0.0
[1]; 0.032 kg/ha
  Postemergence herbicidal rating SETVI: 7.0
[1]; 0.062 kg/ha
  Postemergence herbicidal rating SETVI: 9.0
[2]; rate 0.016 kg/ha
  AMBEL herbicidal rating: 0.0
[2]; rate 0.032 kg/ha
  AMBEL herbicidal rating: 0.0
[2]; rate 0.062 kg/ha
  AMBEL herbicidal rating: 0.0
[2]; rate 0.125 kg/ha
  AMBEL herbicidal rating: 9.0
[3]; 0.008 kg/ha
  Postemergence herbicidal rating ORYSAT: 1.0
[3]; 0.016 kg/ha
  Postemergence herbicidal rating ORYSAT: 2.0
[3]; 0.032 kg/ha
  Postemergence herbicidal rating ORYSAT: 3.5
[3]; 0.062 kg/ha
  Postemergence herbicidal rating ORYSAT: 6.0
[4]; 0.008 kg/ha
  Postemergence herbicidal rating IPOHE: 5.0
[4]; 0.016 kg/ha
  Postemergence herbicidal rating IPOHE: 5.0
[4]; 0.032 kg/ha
  Postemergence herbicidal rating IPOHE: 9.0
[4]; 0.062 kg/ha
  Postemergence herbicidal rating IPOHE: 9.0
[5]; rate 0.016 kg/ha
  TRZAWR herbicidal rating: 0.0
[5]; rate 0.032 kg/ha
  TRZAWR herbicidal rating: 0.0
[5]; rate 0.062 kg/ha
  TRZAWR herbicidal rating: 0.0
[5]; rate 0.125 kg/ha
  TRZAWR herbicidal rating: 0.0
[6]; 0.008 kg/ha
  Postemergence herbicidal rating CASOB: 0.0
[6]; 0.016 kg/ha
  Postemergence herbicidal rating CASOB: 0.0
[6]; 0.032 kg/ha
  Postemergence herbicidal rating CASOB: 0.0
[6]; 0.062 kg/ha
  Postemergence herbicidal rating CASOB: 1.0
[7]; rate 0.016 kg/ha
  SETVI herbicidal rating: 0.0
[7]; rate 0.032 kg/ha
  SETVI herbicidal rating: 0.0
[7]; rate 0.062 kg/ha
  SETVI herbicidal rating: 0.0
[7]; rate 0.125 kg/ha
  SETVI herbicidal rating: 9.0
[8]; rate 0.016 kg/ha
  ZEAMX herbicidal rating: 0.0
[8]; rate 0.032 kg/ha
  ZEAMX herbicidal rating: 0.0
[8]; rate 0.062 kg/ha
  ZEAMX herbicidal rating: 0.0
[8]; rate 0.125 kg/ha
  ZEAMX herbicidal rating: 0.0
[9]; rate 0.016 kg/ha
  GLXMAW herbicidal rating: 0.0
[9]; rate 0.032 kg/ha
  GLXMAW herbicidal rating: 0.0
[9]; rate 0.062 kg/ha
  GLXMAW herbicidal rating: 0.0
[9]; rate 0.125 kg/ha
  GLXMAW herbicidal rating: 0.0
[10]; 0.008 kg/ha
  Postemergence herbicidal rating GALAP: 0.0
[10]; 0.016 kg/ha
  Postemergence herbicidal rating GALAP: 0.0
[10]; 0.032 kg/ha
  Postemergence herbicidal rating GALAP: 3.0
[10]; 0.062 kg/ha
  Postemergence herbicidal rating GALAP: 4.0
[11]; rate 0.016 kg/ha
  GALAP herbicidal rating: 0.0
[11]; rate 0.032 kg/ha
  GALAP herbicidal rating: 0.0
[11]; rate 0.062 kg/ha
  GALAP herbicidal rating: 0.0
[11]; rate 0.125 kg/ha
  GALAP herbicidal rating: 0.0
[12]; 0.008 kg/ha
  Postemergence herbicidal rating ABUTH: 3.0
[12]; 0.016 kg/ha
  Postemergence herbicidal rating ABUTH: 8.0
[12]; 0.032 kg/ha
  Postemergence herbicidal rating ABUTH: 9.0
[12]; 0.062 kg/ha
  Postemergence herbicidal rating ABUTH: 9.0
[13]; rate 0.016 kg/ha
  ORYSAT herbicidal rating: 0.0
[13]; rate 0.032 kg/ha
  ORYSAT herbicidal rating: 0.0
[13]; rate 0.062 kg/ha
  ORYSAT herbicidal rating: 0.0
[13]; rate 0.125 kg/ha
  ORYSAT herbicidal rating: 0.0
[14]; 0.008 kg/ha
  Postemergence herbicidal rating ECHCG: 0.0
[14]; 0.016 kg/ha
  Postemergence herbicidal rating ECHCG: 0.0
[14]; 0.032 kg/ha
  Postemergence herbicidal rating ECHCG: 3.0
[14]; 0.062 kg/ha
  Postemergence herbicidal rating ECHCG: 3.0
[15]; rate 0.016 kg/ha
  CASOB herbicidal rating: 0.0
[15]; rate 0.032 kg/ha
  CASOB herbicidal rating: 0.0
[15]; rate 0.062 kg/ha
  CASOB herbicidal rating: 0.0
[15]; rate 0.125 kg/ha
  CASOB herbicidal rating: 2.0
[16]; 0.008 kg/ha
  Postemergence herbicidal rating TRZAWR: 3.5
[16]; 0.016 kg/ha
  Postemergence herbicidal rating TRZAWR: 4.5
[16]; 0.032 kg/ha
  Postemergence herbicidal rating TRZAWR: 6.0
[16]; 0.062 kg/ha
  Postemergence herbicidal rating TRZAWR: 8.0
[17]; rate 0.016 kg/ha
  IPOHE herbicidal rating: 0.0
[17]; rate 0.032 kg/ha
  IPOHE herbicidal rating: 0.0
[17]; rate 0.062 kg/ha
  IPOHE herbicidal rating: 0.0
[18]; 0.008 kg/ha
  Postemergence herbicidal rating ZEAMX: 7.5
[18]; 0.016 kg/ha
  Postemergence herbicidal rating ZEAMX: 8.0
[18]; 0.032 kg/ha
  Postemergence herbicidal rating ZEAMX: 8.0
[18]; 0.062 kg/ha
  Postemergence herbicidal rating ZEAMX: 8.0
[19]; rate 0.016 kg/ha
  CHEAL herbicidal rating: 9.0
[19]; rate 0.032 kg/ha
  CHEAL herbicidal rating: 9.0
[19]; rate 0.062 kg/ha
  CHEAL herbicidal rating: 9.0
[19]; rate 0.125 kg/ha
  CHEAL herbicidal rating: 9.0
[20]; rate 0.016 kg/ha
  ECHCG herbicidal rating: 0.0
[20]; rate 0.032 kg/ha
  ECHCG herbicidal rating: 0.0
[20]; rate 0.062 kg/ha
  ECHCG herbicidal rating: 0.0
[20]; rate 0.125 kg/ha
  ECHCG herbicidal rating: 0.0
[21]; rate 0.016 kg/ha
  ABUTH herbicidal rating: 0.0
[21]; rate 0.032 kg/ha
  ABUTH herbicidal rating: 0.0
[21]; rate 0.062 kg/ha
  ABUTH herbicidal rating: 2.0
[21]; rate 0.125 kg/ha
  ABUTH herbicidal rating: 9.0
[22]; 0.008 kg/ha
  Postemergence herbicidal rating CHEAL: 0.0
[22]; 0.016 kg/ha
  Postemergence herbicidal rating CHEAL: 0.0
[22]; 0.032 kg/ha
  Postemergence herbicidal rating CHEAL: 2.0
[22]; 0.062 kg/ha
  Postemergence herbicidal rating CHEAL: 3.0
[23]; 0.008 kg/ha
  Postemergence herbicidal rating GLXMAW: 5.5
[23]; 0.016 kg/ha
  Postemergence herbicidal rating GLXMAW: 5.5
[23]; 0.032 kg/ha
  Postemergence herbicidal rating GLXMAW: 6.0
[23]; 0.062 kg/ha
  Postemergence herbicidal rating GLXMAW: 7.5
[24]; 0.008 kg/ha
  Postemergence herbicidal rating AMBEL: 2.0
[24]; 0.016 kg/ha
  Postemergence herbicidal rating AMBEL: 7.0
[24]; 0.032 kg/ha
  Postemergence herbicidal rating AMBEL: 7.0
[24]; 0.062 kg/ha
  Postemergence herbicidal rating AMBEL: 9.0
